{"source": "ChEMBL document CHEMBL1129134", "about": "“DNA threading agents: effect of sidechain bulk on DNA binding and cytotoxicity of 9-anilinoacridine-4-carboxamides” (Bioorg Med Chem Lett, 1996)", "note": "pIC50: −log10 of the molar value."}
{"system": "HT-29", "experiment": "Compound was tested for biological activity against human colon carcinoma cell line HT-29/219", "format": "functional, cell-based"}
{"smiles": "COc1cc(NS(C)(=O)=O)ccc1Nc1c2ccccc2nc2c(C(=O)NC34C[C@H]5C[C@@H](C3)C[C@@H](C4)C5)cccc12", "pIC50": 5.01}
{"smiles": "Nc1c2ccccc2nc2c(C(=O)NC3CCCCCCC3)cccc12", "pIC50": 5.28}
{"smiles": "Nc1c2ccccc2nc2c(C(=O)NC34C[C@H]5C[C@@H](C3)C[C@@H](C4)C5)cccc12", "pIC50": 6.24}
{"smiles": "COc1cc(NS(C)(=O)=O)ccc1Nc1c2ccccc2nc2c(C(=O)NC3CCCCCCC3)cccc12", "pIC50": 5.24}
{"smiles": "CN(C)CCNC(=O)c1cccc2c(N)c3ccccc3nc12", "pIC50": 6.85}
{"smiles": "Nc1c2ccccc2nc2c(C(=O)NC3CC3)cccc12", "pIC50": 5.24}
{"smiles": "Nc1c2ccccc2nc2c(C(=O)NC3CCCCC3)cccc12", "pIC50": 5.25}
{"smiles": "COc1cc(NS(C)(=O)=O)ccc1Nc1c2ccccc2nc2c(C(=O)NC3CCCCC3)cccc12", "pIC50": 5.33}
{"smiles": "COc1cc(NS(C)(=O)=O)ccc1Nc1c2ccccc2nc2c(C(=O)NC3CCCCCCCCCCC3)cccc12", "pIC50": 5.48}
{"smiles": "COc1cc(NS(C)(=O)=O)ccc1Nc1c2ccccc2nc2c(C(=O)NC3CC3)cccc12", "pIC50": 5.44}
{"smiles": "Nc1c2ccccc2nc2c(C(=O)NC3CCCCCCCCCCC3)cccc12", "pIC50": 5.11}
{"smiles": "COc1cc(NS(C)(=O)=O)ccc1Nc1c2ccccc2nc2c(C(=O)NCCN(C)C)cccc12", "pIC50": 7.21}
